Assays:
Androgen receptor = target: T1, Androgen receptor (Homo sapiens, UniProt P10275); test: Binding affinity to human androgen receptor
T1 sequence (P10275 whole entry): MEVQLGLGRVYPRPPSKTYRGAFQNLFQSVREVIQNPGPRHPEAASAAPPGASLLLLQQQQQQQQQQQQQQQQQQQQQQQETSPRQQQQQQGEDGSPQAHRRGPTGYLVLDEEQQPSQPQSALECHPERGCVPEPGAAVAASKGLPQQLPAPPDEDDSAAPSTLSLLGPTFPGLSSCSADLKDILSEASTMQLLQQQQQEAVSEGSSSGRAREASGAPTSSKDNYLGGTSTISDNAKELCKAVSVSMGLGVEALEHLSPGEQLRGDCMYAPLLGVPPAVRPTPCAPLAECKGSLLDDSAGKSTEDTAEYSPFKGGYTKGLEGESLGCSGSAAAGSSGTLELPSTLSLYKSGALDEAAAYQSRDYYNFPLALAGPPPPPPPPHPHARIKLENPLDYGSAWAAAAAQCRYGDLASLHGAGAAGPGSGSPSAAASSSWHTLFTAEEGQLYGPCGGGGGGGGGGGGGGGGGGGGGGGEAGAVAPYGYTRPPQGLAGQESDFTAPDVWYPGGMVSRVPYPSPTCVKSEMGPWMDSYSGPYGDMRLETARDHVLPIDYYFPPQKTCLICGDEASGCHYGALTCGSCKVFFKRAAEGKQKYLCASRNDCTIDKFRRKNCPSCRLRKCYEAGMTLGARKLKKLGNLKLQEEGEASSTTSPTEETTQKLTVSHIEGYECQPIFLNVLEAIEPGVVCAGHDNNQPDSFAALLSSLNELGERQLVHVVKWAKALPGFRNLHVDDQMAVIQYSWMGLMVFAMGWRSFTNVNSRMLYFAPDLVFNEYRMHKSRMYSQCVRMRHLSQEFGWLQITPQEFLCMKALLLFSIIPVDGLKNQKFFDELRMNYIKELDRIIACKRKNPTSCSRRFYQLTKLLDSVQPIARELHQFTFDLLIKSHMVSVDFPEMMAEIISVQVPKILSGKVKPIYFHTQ

Glucocorticoid receptor [1] = target: T2, Glucocorticoid receptor (Homo sapiens, UniProt P04150); test: Transrepression activity at GR in human SW1353 cells assessed as inhibition of IL1-stimulated MMP13 production after 24 hrs by whole cell ELISA; format: cell-based
T2 sequence (P04150 whole entry): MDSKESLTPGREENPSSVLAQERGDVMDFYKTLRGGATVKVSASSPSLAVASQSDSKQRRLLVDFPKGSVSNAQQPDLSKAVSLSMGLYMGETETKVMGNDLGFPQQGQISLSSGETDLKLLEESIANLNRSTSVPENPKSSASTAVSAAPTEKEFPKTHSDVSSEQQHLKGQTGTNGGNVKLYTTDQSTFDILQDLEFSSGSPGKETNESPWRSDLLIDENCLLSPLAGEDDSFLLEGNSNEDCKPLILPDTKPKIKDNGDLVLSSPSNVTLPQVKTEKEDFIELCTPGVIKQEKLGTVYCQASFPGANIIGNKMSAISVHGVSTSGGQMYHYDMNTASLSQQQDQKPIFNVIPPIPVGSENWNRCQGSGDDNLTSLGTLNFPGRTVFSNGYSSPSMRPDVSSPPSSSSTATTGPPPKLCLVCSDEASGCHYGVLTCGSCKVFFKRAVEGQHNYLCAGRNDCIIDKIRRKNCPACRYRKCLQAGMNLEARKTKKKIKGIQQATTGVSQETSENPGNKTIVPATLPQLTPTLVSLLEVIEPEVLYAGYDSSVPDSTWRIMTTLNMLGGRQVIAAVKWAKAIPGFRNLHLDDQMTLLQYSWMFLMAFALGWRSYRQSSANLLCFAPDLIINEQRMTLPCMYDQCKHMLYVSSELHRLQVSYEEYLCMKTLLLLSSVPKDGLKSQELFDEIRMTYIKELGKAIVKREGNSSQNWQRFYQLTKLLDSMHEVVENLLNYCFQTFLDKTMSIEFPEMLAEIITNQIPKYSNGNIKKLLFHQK

Glucocorticoid receptor [2] = target: T2, Glucocorticoid receptor; test: Binding affinity to human glucocorticoid receptor
Estrogen receptor = target: T3, Estrogen receptor (Homo sapiens, UniProt P03372); test: Binding affinity to human ERalpha
T3 sequence (P03372 whole entry): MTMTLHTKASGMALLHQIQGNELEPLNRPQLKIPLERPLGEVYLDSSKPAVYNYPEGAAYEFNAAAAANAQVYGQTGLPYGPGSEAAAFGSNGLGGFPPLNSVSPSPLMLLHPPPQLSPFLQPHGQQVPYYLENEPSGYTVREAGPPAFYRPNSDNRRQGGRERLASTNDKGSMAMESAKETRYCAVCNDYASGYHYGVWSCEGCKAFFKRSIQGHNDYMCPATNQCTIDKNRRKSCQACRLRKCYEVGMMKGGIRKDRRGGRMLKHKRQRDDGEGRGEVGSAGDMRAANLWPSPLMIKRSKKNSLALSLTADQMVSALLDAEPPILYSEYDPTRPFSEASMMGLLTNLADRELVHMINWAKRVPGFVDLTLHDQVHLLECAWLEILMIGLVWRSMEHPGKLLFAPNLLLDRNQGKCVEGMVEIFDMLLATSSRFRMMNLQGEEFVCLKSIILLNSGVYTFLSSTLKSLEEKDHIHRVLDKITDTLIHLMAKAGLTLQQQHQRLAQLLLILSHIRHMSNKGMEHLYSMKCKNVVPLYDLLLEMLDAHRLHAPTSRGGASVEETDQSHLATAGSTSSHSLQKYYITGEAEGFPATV

Estrogen receptor beta = Estrogen receptor beta (Homo sapiens, UniProt Q92731); test: Binding affinity to human ERbeta
Progesterone receptor = target: T4, Progesterone receptor (Homo sapiens, UniProt P06401); test: Binding affinity to human progesterone receptor
T4 sequence (P06401 whole entry): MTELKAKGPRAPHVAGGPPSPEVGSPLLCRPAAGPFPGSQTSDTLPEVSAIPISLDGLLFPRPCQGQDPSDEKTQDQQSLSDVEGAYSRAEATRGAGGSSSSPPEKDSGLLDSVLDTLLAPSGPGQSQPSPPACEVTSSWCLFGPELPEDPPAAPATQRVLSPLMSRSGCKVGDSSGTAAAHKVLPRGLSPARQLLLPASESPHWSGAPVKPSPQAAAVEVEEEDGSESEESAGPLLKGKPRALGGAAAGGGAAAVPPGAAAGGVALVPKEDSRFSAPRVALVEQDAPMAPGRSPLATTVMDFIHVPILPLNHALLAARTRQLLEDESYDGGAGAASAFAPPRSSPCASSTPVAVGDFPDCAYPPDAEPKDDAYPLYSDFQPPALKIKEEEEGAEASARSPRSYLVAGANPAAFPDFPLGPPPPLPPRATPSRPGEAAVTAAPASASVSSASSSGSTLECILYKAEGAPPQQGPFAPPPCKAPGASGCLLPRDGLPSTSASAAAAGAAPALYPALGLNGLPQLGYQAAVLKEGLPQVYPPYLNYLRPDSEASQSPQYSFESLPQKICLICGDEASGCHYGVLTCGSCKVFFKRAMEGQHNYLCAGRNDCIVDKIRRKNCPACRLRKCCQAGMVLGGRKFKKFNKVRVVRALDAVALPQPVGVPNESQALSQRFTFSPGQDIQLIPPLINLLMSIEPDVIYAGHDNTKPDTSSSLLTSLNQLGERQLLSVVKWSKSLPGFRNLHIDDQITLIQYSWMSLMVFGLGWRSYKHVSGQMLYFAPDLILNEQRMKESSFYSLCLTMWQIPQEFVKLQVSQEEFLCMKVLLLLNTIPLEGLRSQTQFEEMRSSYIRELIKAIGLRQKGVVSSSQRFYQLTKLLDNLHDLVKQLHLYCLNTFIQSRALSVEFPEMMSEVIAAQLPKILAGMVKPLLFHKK

Glucocorticoid receptor [3] = target: T2, Glucocorticoid receptor; test: Transrepression activity at GR in human SW1353 cells assessed as suppression of NFkappaB-induced IL8 production; format: cell-based

Sequence of Estrogen receptor beta (Q92731 whole entry): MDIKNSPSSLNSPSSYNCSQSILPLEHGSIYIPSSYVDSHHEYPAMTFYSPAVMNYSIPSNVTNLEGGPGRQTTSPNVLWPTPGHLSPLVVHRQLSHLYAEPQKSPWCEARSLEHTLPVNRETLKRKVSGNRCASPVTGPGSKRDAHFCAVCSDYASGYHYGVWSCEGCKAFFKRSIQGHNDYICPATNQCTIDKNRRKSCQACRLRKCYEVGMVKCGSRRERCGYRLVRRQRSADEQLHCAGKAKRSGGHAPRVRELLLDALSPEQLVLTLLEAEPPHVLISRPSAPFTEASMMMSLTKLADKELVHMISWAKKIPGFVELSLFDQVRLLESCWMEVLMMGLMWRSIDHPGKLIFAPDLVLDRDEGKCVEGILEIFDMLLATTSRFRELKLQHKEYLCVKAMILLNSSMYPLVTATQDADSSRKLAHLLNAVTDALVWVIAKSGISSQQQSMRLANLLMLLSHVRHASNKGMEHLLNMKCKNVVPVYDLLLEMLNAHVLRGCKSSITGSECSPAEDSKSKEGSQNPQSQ

## CC#C[C@@]1(O)CC[C@@]2(CC)c3ccc(O)cc3CC[C@@H]2C1
Androgen receptor
  IC50: 420 nM
Glucocorticoid receptor [1]
  IC50: 14 nM
Glucocorticoid receptor [2]
  IC50: 5.6 nM
Estrogen receptor
  IC50: 89 nM
Estrogen receptor beta
  IC50: 580 nM
Progesterone receptor
  IC50: 2600 nM

## CC#C[C@@]1(O)CC[C@@]2(CC)c3ccc(OCc4cccnc4C)cc3CC[C@@H]2C1
Androgen receptor
  IC50: 880 nM
Glucocorticoid receptor [1]
  IC50: 6.3 nM
Glucocorticoid receptor [2]
  IC50: 2.3 nM
Estrogen receptor
  IC50: > 10000 nM
Estrogen receptor beta
  IC50: > 10000 nM

## CC#C[C@@]1(O)CC[C@@]2(CC)c3ccc(OCc4ccncc4)cc3CC[C@@H]2C1
Glucocorticoid receptor [1]
  IC50: 31 nM
Glucocorticoid receptor [2]
  IC50: 3 nM
Estrogen receptor
  IC50: 670 nM
Estrogen receptor beta
  IC50: 3500 nM

## CC#C[C@@]1(O)CC[C@@]2(/C=C/C)c3ccc(O)cc3CC[C@@H]2C1
Glucocorticoid receptor [1]
  IC50: > 5000 nM
Glucocorticoid receptor [2]
  IC50: 3.5 nM

## CC#C[C@@]1(O)CC[C@@]2(CO)c3ccc(O)cc3CC[C@@H]2C1
Glucocorticoid receptor [2]
  IC50: > 1000 nM

## C=CCC12CC[C@](O)(C#CC)C[C@H]1CCc1cc(O)ccc12 (single isomer, unassigned)
Glucocorticoid receptor [3]
  IC50: 34 nM
Androgen receptor
  IC50: > 1000 nM
Glucocorticoid receptor [1]
  IC50: 14 nM
Glucocorticoid receptor [2]
  IC50: 6.2 nM
Estrogen receptor
  IC50: 93 nM
Estrogen receptor beta
  IC50: 250 nM
Progesterone receptor
  IC50: 1100 nM

## CC[C@@]12C[C@H](O)[C@H](c3ccccc3)C[C@H]1CCc1cc(O)ccc12
Glucocorticoid receptor [1]
  IC50: 1100 nM
Glucocorticoid receptor [2]
  IC50: 1.3 nM

## CC#C[C@]1(O)C[C@H]2CCc3cc(O)ccc3[C@]2(CC)[C@H](O)C1
Androgen receptor
  IC50: > 10000 nM
Glucocorticoid receptor [2]
  IC50: 360 nM
Estrogen receptor
  IC50: > 10000 nM
Estrogen receptor beta
  IC50: > 10000 nM

## CC[C@@]12CC[C@](O)(c3ccccc3)C[C@H]1CCc1cc(OCc3cccnc3C)ccc12
Glucocorticoid receptor [1]
  IC50: 1500 nM
Glucocorticoid receptor [2]
  IC50: 6 nM

## CC#C[C@]1(O)C[C@H]2CCc3cc(O)ccc3[C@]2(CC)C[C@@H]1O
Androgen receptor
  IC50: > 10000 nM
Glucocorticoid receptor [1]
  IC50: 63 nM
Glucocorticoid receptor [2]
  IC50: 35 nM
Estrogen receptor
  IC50: > 10000 nM
Estrogen receptor beta
  IC50: > 10000 nM
Progesterone receptor
  IC50: > 10000 nM

## CC[C@@]12C[C@@H](O)[C@](O)(c3ccccc3)C[C@H]1CCc1cc(O)ccc12
Glucocorticoid receptor [1]
  IC50: 5000 nM
Glucocorticoid receptor [2]
  IC50: 3.8 nM

## CC#C[C@]1(O)C[C@H]2CCc3cc(OCc4cccnc4C)ccc3[C@]2(CC)C[C@@H]1O
Androgen receptor
  IC50: > 10000 nM
Glucocorticoid receptor [1]
  IC50: 15 nM
Glucocorticoid receptor [2]
  IC50: 3.3 nM
Estrogen receptor
  IC50: > 10000 nM
Estrogen receptor beta
  IC50: > 10000 nM
Progesterone receptor
  IC50: > 10000 nM

## CC#C[C@@]1(O)CC[C@@]2(CCO)c3ccc(O)cc3CC[C@@H]2C1
Glucocorticoid receptor [2]
  IC50: > 1000 nM

## CC[C@@]12CC[C@](O)(c3ccccc3)C[C@H]1CCc1cc(O)ccc12
Glucocorticoid receptor [1]
  IC50: > 5000 nM
Glucocorticoid receptor [2]
  IC50: 21 nM

## CC#C[C@@]1(O)CC[C@@]2(C)c3ccc(O)cc3CC[C@@H]2C1
Glucocorticoid receptor [1]
  IC50: > 5000 nM
Glucocorticoid receptor [2]
  IC50: 17 nM

## CC#C[C@@]1(O)CC[C@@]2(CCC)c3ccc(O)cc3CC[C@@H]2C1
Glucocorticoid receptor [1]
  IC50: > 5000 nM
Glucocorticoid receptor [2]
  IC50: 1.5 nM

## CC[C@@]12C[C@H](O)[C@](O)(c3ccccc3)C[C@H]1CCc1cc(OCc3cccnc3C)ccc12
Androgen receptor
  IC50: > 10000 nM
Glucocorticoid receptor [1]
  IC50: 38 nM
Glucocorticoid receptor [2]
  IC50: 1.5 nM
Estrogen receptor
  IC50: > 10000 nM
Estrogen receptor beta
  IC50: > 10000 nM
Progesterone receptor
  IC50: > 1000 nM

## CC[C@@]12C[C@H](O)[C@](O)(c3ccccc3)C[C@H]1CCc1cc(O)ccc12
Androgen receptor
  IC50: > 10000 nM
Glucocorticoid receptor [1]
  IC50: 140 nM
Glucocorticoid receptor [2]
  IC50: 2.5 nM
Estrogen receptor
  IC50: 3400 nM
Estrogen receptor beta
  IC50: 660 nM
Progesterone receptor
  IC50: 750 nM
